Data reported in patent US20240043427A1 (Gilead Sciences, Inc., priority 2020, published 2024).
Where “and” joins values, the source holds several entries; their conditions need not be identical. Equal entries are not always repeated. Where two headings read alike, the source gives them in different places.

Experiments:
[1] = target: T1, CD73 (Homo sapiens (Human), UniProt P21589); experiment: CD73 Biochemical IC50 Assay; details: CD73 0.3 nM, AMP 15 uM, 25 mM Tris pH 7.4, 5 mM MgCl2
Protocol: CD73 Biochemical IC50 Assay
Compound serial dilutions were pre-spotted into Thermo Nunc assay plate. 50 μL CD73 enzyme buffer (CD73 purchased from R&D system=0.6 nM, 25 mM Tris, pH 7.4, 5 mM MgCl2) was added into the assay plate and incubated for 15 mins. […] The samples were run using Rapid fire.

[2] = target: T1, CD73; assay type: biochemical; details: 1 mM NaH2PO4 in enzyme buffer, CD73 0.3 nM, AMP 15 uM
[3] = target: T1, CD73; experiment: MDA-MB-231 Cell Based CD73 Activity Assay (DMEM); details: MDA-MB-231-GFP cells, DMEM medium with 10% human plasma, 200 uM AMP
[4] = target: T1, CD73; experiment: MDA-MB-231 Cell Based CD73 Activity Assay; details: MDA-MB-231-GFP cells, RPMI medium with 10% human plasma, 200 uM AMP

T1 sequence (P21589 27-574): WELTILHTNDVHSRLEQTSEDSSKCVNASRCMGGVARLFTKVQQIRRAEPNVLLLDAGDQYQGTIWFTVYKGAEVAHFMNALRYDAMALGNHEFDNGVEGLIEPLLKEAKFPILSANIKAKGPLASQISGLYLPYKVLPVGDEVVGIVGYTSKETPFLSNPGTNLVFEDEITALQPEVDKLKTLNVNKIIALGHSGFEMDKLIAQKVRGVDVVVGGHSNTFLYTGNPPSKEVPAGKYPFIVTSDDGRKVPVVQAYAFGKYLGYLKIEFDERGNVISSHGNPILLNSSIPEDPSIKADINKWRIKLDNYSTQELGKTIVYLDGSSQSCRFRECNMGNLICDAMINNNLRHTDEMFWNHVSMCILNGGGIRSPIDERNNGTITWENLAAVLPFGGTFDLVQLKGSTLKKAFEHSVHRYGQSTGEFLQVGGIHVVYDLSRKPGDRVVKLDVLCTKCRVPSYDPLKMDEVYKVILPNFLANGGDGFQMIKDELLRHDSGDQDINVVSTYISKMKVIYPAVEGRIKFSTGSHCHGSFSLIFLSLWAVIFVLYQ

SMILES | IC50 [1] | IC50 [2] [nM] | EC50 [3] [nM] | EC50 [4]
O=c1[nH]cc(-c2cc([C@H]3C[C@@H]3c3ccccc3)c3nccn3n2)c(=O)[nH]1 (racemic) [Example 7, 5-(8-((1S,2S)-2-phenylcyclopropyl)imidazo[1,2-b]pyridazin-6-yl)pyrimidine-2,4-(1H,3H)-dione and 5-(8-((1R,2R)-2-phenylcyclopropyl)imidazo[1,2-b]pyridazin-6-yl)pyrimidine-2,4-(1H,3H)-dione] | 13.6 nM and 13 nM | 0.94 | 4.15 | 2.08 nM and 1.88 nM
O=c1[nH]cc(-c2cc([C@H]3C[C@@H]3c3ccncc3)c3nccn3n2)c(=O)[nH]1 (racemic) [Example 54, 5-[8-[(1S,2S)-2-(4-pyridyl)cyclopropyl]imidazo[1,2-b]pyridazin-6-yl]-1H-pyrimidine-2,4-dione and 5-[8-[(1R,2R)-2-(4-pyridyl)cyclopropyl]imidazo[1,2-b]pyridazin-6-yl]-1H-pyrimidine-2,4-dione] | 17.7 nM | 1.98 | – | 3.4 nM
O=c1[nH]cc(-c2cc(N3C[C@H](F)[C@@H](F)C3)c3nccn3n2)c(=O)[nH]1 (racemic) [Example 73, 5-[8-[(3S,4S)-3,4-difluoropyrrolidin-1-yl]imidazo[1,2-b]pyridazin-6-yl]-1H-pyrimidine-2,4-dione and 5-[8-[(3R,4R)-3,4-difluoropyrrolidin-1-yl]imidazo[1,2-b]pyridazin-6-yl]-1H-pyrimidine-2,4-dione] | 39.7 nM | 9.87 | 31.7 | 17.4 nM
N#Cc1cc(F)cc([C@H]2C[C@@H]2c2cc(-c3c[nH]c(=O)[nH]c3=O)nn3ccnc23)c1 (racemic) [Example 85, 3-[(1S,2S)-2-[6-(2,4-dioxo-1H-pyrimidin-5-yl)imidazo[1,2-b]pyridazin-8-yl]cyclopropyl]-5-fluoro-benzonitrile and 3-[(1R,2R)-2-[6-(2,4-dioxo-1H-pyrimidin-5-yl)imidazo[1,2-b]pyridazin-8-yl]cyclopropyl]-5-fluoro-benzonitrile] | 43.3 nM | 1.34 | 17.7 | 6.08 nM
O=c1[nH]cc(-c2cc([C@H]3C[C@@H]3c3ccc(F)cc3)c3nc(C4CC4)cn3n2)c(=O)[nH]1 (racemic) [Example 86, 5-[2-cyclopropyl-8-[(1S,2S)-2-(4-fluorophenyl)cyclopropyl]imidazo[1,2-b]pyridazin-6-yl]-1H-pyrimidine-2,4-dione and 5-[2-cyclopropyl-8-[(1R,2R)-2-(4-fluorophenyl)cyclopropyl]imidazo[1,2-b]pyridazin-6-yl]-1H-pyrimidine-2,4-dione] | 152 nM | 5.66 | 16.6 | 21.8 nM
O=c1[nH]cc(-c2cc([C@H]3C[C@@H]3c3ccc(Cl)c(F)c3)c3nccn3n2)c(=O)[nH]1 (racemic) [Example 98, 5-(8-((1S,2S)-2-(4-chloro-3-fluorophenyl)cyclopropyl)imidazo[1,2-b]pyridazin-6-yl)pyrimidine-2,4(1H,3H)-dione and 5-(8-((1R,2R)-2-(4-chloro-3-fluorophenyl)cyclopropyl)imidazo[1,2-b]pyridazin-6-yl)pyrimidine-2,4(1H,3H)-dione] | 16.4 nM | 2 | 17.7 | 7.23 nM
O=c1[nH]cc(-c2cc([C@H]3C[C@@H]3c3ccc4c(c3)OC(F)(F)O4)c3nccn3n2)c(=O)[nH]1 (racemic) [Example 110, 5-(8-((1S,2S)-2-(2,2-difluorobenzo[d][1,3]dioxol-5-yl)cyclopropyl)imidazo[1,2-b]pyridazin-6-yl)pyrimidine-2,4(1H,3H)-dione and 5-(8-41R,2R)-2-(2,2-difluorobenzo[d][1,3]dioxol-5-yl)cyclopropyl)imidazo[1,2-b]pyridazin-6-yl)pyrimidine-2,4(1H,3H)-dione] | 31.4 nM | 2.96 | 28.7 | 7.5 nM
N#Cc1ccc([C@H]2C[C@@H]2c2cc(-c3c[nH]c(=O)[nH]c3=O)nn3ccnc23)cc1F (racemic) [Example 115, 4-((1S,2S)-2-(6-(2,4-dioxo-1,2,3,4-tetrahydropyrimidin-5-yl)imidazo[1,2-b]pyridazin-8-yl)cyclopropyl)-2-fluorobenzonitrile] | 13.3 nM | 1.77 | 12.9 | 4.21 nM
O=c1[nH]cc(-c2cc(N3CCC(c4ccc(F)cc4)C3)c3nccn3n2)c(=O)[nH]1 (stereo in doubt) [Example 67, 5-[8-[(3R)-3-(4-fluorophenyl)pyrrolidin-1-yl]imidazo[1,2-b]pyridazin-6-yl]-1H-pyrimidine-2,4-dione] | 30.1 nM | 4.83 | 30.3 | 14.3 nM
O=c1[nH]cc(-c2cc(N3CCCC3)c3nccn3n2)c(=O)[nH]1 [Example 9, 5-(8-pyrrolidin-1-ylimidazo[1,2-b]pyridazin-6-yl)-1H-pyrimidine-2,4-dione] | 106 nM | 19.4 | 58.8 | 29.1 nM
O=c1[nH]cc(-c2cc(C3CC3)c3nccn3n2)c(=O)[nH]1 [Example 22, 5-(8-cyclopropylimidazo[1,2-b]pyridazin-6-yl)pyrimidine-2,4(1H,3H)-dione] | 55.8 nM and 64.9 nM | 35.5 | 104 | 46.3 nM and 45.1 nM
O=c1[nH]cc(-c2cc(N3CC(C(F)(F)F)C3)c3nccn3n2)c(=O)[nH]1 [Example 62, 5-(8-(3-(trifluoromethyl)azetidin-1-yl)imidazo[1,2-b]pyridazin-6-yl)pyrimidine-2,4(1H,3H)-dione] | 27.2 nM | 8.47 | 32.2 | 25.1 nM
CC1(C)CN(c2cc(-c3c[nH]c(=O)[nH]c3=O)nn3ccnc23)C1 [Example 63, 5-(8-(3,3-dimethylazetidin-1-yl)imidazo[1,2-b]pyridazin-6-yl)pyrimidine-2,4(1H,3H)-dione] | 70.5 nM | 29.1 | 47.4 | 34.7 nM
O=c1[nH]cc(-c2cc(N3CCC(F)(F)CC3)c3nccn3n2)c(=O)[nH]1 [Example 70, 5-[8-(4,4-difluoro-1-piperidyl)imidazo[1,2-b]pyridazin-6-yl]-1H-pyrimidine-2,4-dione] | 221 nM | 134 | 285 | 240 nM
CC1(C)CCN(c2cc(-c3c[nH]c(=O)[nH]c3=O)nn3ccnc23)C1 [Example 72, 5-[8-(3,3-dimethylpyrrolidin-1-yl)imidazo[1,2-b]pyridazin-6-yl]-1H-pyrimidine-2,4-dione] | 26.5 nM | 6.97 | 25.9 | 12.4 nM
O=c1[nH]cc(-c2cc(N3CCC(F)(F)C3)c3nccn3n2)c(=O)[nH]1 [Example 79, 5-[8-(3,3-difluoropyrrolidin-1-yl)imidazo[1,2-b]pyridazin-6-yl]-1H-pyrimidine-2,4-dione] | 25.2 nM | 4.58 | 20.8 | 11.7 nM
CC1(C)CCN(c2cc(-c3c[nH]c(=O)[nH]c3=O)nc3ncnn23)C1 [Example 92, 5-(7-(3,3-dimethylpyrrolidin-1-yl)-[1,2,4]triazolo[1,5-a]pyrimidin-5-yl)pyrimidine-2,4(1H,3H)-dione] | 15.6 nM | 6.57 | – | 23.6 nM
O=c1[nH]cc(-c2cc(N3CCCC(F)(F)C3)c3nccn3n2)c(=O)[nH]1 [Example 93, 5-(8-(3,3-difluoropiperidin-1-yl)imidazo[1,2-b]pyridazin-6-yl)pyrimidine-2,4(1H,3H)-dione] | 522 nM | > 250 | 685 | 556 nM
O=c1[nH]cc(-c2cc(N3CC(F)(F)C(F)(F)C3)c3nccn3n2)c(=O)[nH]1 [Example 109, 5-(8-(3,3,4,4-tetrafluoropyrrolidin-1-yl)imidazo[1,2-b]pyridazin-6-yl)pyrimidine-2,4(1H,3H)-dione] | 44.5 nM | 2.97 | – | 13 nM
